Experimental data: ChEMBL document CHEMBL1157539, “Thousands of chemical starting points for antimalarial lead identification” (Nature, 2010)

What follows are compounds tested on Plasmodium falciparum (assay: GSK_TCMDC: Inhibition of Plasmodium falciparum 3D7 in whole erythrocytes, using parasite LDH activity as an index of growth.). Settings: Plasmodium falciparum, 3D7.
Format: functional, organism-based
For `CCOC(=O)c1c(NC(=O)c2ccccc2)sc2c(O)c(CN(CC)CC)ccc12`, the XC50 was 969 nM.
Compound `COc1c(C2CCN(CCCCNC(=O)c3ccc(-c4ccc(Cl)cc4)cn3)CC2)ccc2c1CCCC2` has an XC50 of 912 nM.
`O=C(C=Cc1ccc(Cl)c(Cl)c1)NCCCCCN1CCC(CCCNC(=O)c2sc3ccccc3c2Cl)CC1` was tested, and the XC50 was 398 nM.
Compound `O=c1c2ccccc2[nH]c2cc(Cl)ccc12` has an XC50 of 873 nM.
In the case of `O=C(Nc1cccc(-c2cccc(-c3nc4ccccc4[nH]3)c2)c1)c1cccnc1`, the XC50 is reported as 646 nM.
Work on `Cc1nc2ccc([N+](=O)[O-])cc2c(=O)n1OCc1ccccc1` yielded an XC50 of 208 nM.
`N#Cc1ccc(N[C@@H](CC2CCCCC2)C(=O)Nc2ccc(-c3ccccc3)cc2)c2ccccc12` gave an XC50 of 597 nM.
With `CCc1ccc(CN2CCC(CNC(=O)c3cc(-c4cccc(C(F)(F)F)c4)cs3)C2)cc1` (stereo not drawn) the XC50 was 753 nM.
With `CN(C)c1ccc(C=C2SC(=O)N=C2Nc2ccccc2)cc1` the XC50 was 32.1 nM.
`CC[C@H]1CN2CC[C@H]1C[C@H]2[C@H](O)c1ccnc2ccc(O)cc12` gave an XC50 of 643 nM.
Compound `CC1=C(C(=O)Nc2ccccc2)C(c2ccc([N+](=O)[O-])cc2)n2ncc(C(=O)Nc3ccccc3)c2N1` (stereo not drawn) has an XC50 of 1240 nM.
Work on `CCCCCN1CCCN(Cc2cccc(NC(=O)c3cc4ccccc4s3)c2)CC1` yielded an XC50 of 594 nM.
`CCc1c(CCNCCCCCCNCc2ccc3c(c2CC)OCO3)ccc(OC)c1OC` gave an XC50 of 246 nM.
`CC(C)[C@H](NC(=O)c1ccc(O)c(-c2cccc(C(F)(F)F)c2)c1)C(=O)NCCN1CCCCC1` was tested, and the XC50 was 836 nM.
`COC(=O)c1cccc(CNCc2ccc(-c3ccc(-c4nc5ccccc5[nH]4)s3)cc2)c1` gave an XC50 of 289 nM.
In the case of `O=C(NC1CCN(CCN2CCC(c3c[nH]c4ccccc34)CC2)CC1)c1ccc(-c2ccc(C(F)(F)F)cc2)cc1`, the XC50 is reported as 205 nM.
Compound `N#CCCN1CCN(Cc2cccc(-c3ccc(-c4nc5ccccc5[nH]4)s3)c2)CC1` has an XC50 of 759 nM.
For `COc1ccc2nccc([C@@H](O)CN3CCC(NCCOc4ccncc4)CC3)c2c1`, the XC50 was 690 nM.
`Cc1ccc(CCOCCCCCNCC(O)c2cc(Cl)c(N)c(Cl)c2)cc1` (stereo not drawn) was tested, and the XC50 was 945 nM.
With `CC1=C(C(=O)Nc2cc3cn[nH]c3cc2F)C(c2cccc(NS(C)(=O)=O)c2)CC(=O)N1` (stereo not drawn) the XC50 was 434 nM.
Compound `Cc1cc(-c2ccc(S(=O)(=O)Nc3cc4c(cc3OC(C)C)CCN(C)CC4)cc2)ccc1Cl` has an XC50 of 904 nM.
`O=C1NC(=O)C(c2cccc(NC(=O)c3ccncc3)c2)=C1c1ccccc1` gave an XC50 of 735 nM.
With `COc1c(F)ccc2ncc(Cl)c(CCN3CCC(NCc4ccc5c(n4)NC(=O)CS5)CC3)c12` the XC50 was 544 nM.
Compound `CNC(=O)c1cnc(Nc2ccc(OCC(O)CN(C)C)cc2)nc1Nc1cccc(Br)c1` (stereo not drawn) has an XC50 of 121 nM.
`Cc1c(OC(C)C)nc2ccccc2c1C(=O)N[C@H](c1cccc(F)c1)C1CC1` showed an XC50 of 1090 nM.
For `CC(C)N1CCC(NCc2ccc(-c3ccc(Cl)cc3)cc2)CC1`, the XC50 was 646 nM.
`COc1ccc2c(=NN=Cc3ccc(F)cc3)cc(C)[nH]c2c1` was tested, and the XC50 was 773 nM.
`Cc1cc(C)c2c(c1)C(=NO)CCN2` gave an XC50 of 945 nM.
`CCCCNC(=N)Nc1ccc(OCCCOc2ccc(NC(=N)NCCCC)cc2)cc1` showed an XC50 of 164 nM.
`CC(=O)Oc1c(Cl)c(C)nc(C)c1-c1ccc(Oc2ccc(Cl)cc2)cc1` showed an XC50 of 31.5 nM.
Compound `COc1ccc2nccc([C@@H](O)CN3CCC(NCc4[nH]c5ccccc5c4F)CC3)c2c1` has an XC50 of 247 nM.
Compound `CN1CC=C(c2c[nH]c3ccc(-c4ccccc4)cc23)CC1` has an XC50 of 775 nM.
`CC(C)n1ncc2c(C(=O)N3CCCC4CCCCC43)cc(C3CC3)nc21` (stereo not drawn) showed an XC50 of 676 nM.
Work on `CCc1cc2c3c(N)nc(N)nc3ccc2n1CC` yielded an XC50 of 10.3 nM.
`O=C(/C=C/c1ccc(Cl)c(Cl)c1)NC1CCC(CN2CCC(c3c[nH]c4ccccc34)C(O)C2)CC1` (stereo not drawn) showed an XC50 of 719 nM.
`CN1CCCN(Cc2ccc(-c3cccc(NC(=O)c4ccc(Cl)cc4)c3)cc2)CC1` was tested, and the XC50 was 610 nM.
In the case of `O=C(CSc1nc2ccccc2c(=O)n1CC1CCCO1)Nc1cc(C(F)(F)F)ccc1Cl` (stereo not drawn), the XC50 is reported as 229 nM.
With `O=C(NC1CCN(c2ccnc3cc(Cl)ccc23)C1)c1ccc(F)cc1F` (stereo not drawn) the XC50 was 372 nM.
Work on `CCN(C(=O)c1ccc(NC(=O)c2cccs2)cc1)c1nc2c(C)cccc2s1` yielded an XC50 of 850 nM.
For `N#Cc1ccccc1S(=O)(=O)N1CCCC(CNC(=O)[C@H](CC2CCCCC2)NC(=O)c2cc3ccccc3s2)C1` (stereo partly drawn), the XC50 was 515 nM.
`COc1ccc(NC(=O)c2ccc(OCCCCCCCOc3ccc(C(=O)Nc4ccc(OC)c(N5CCN(C)CC5)c4)cc3)cc2)cc1N1CCN(C)CC1` showed an XC50 of 598 nM.
`O=C(NC(CCCN1CCC(c2ccccc2)CC1)c1ccc(Cl)c(Cl)c1)c1cc(C(F)(F)F)cc(C(F)(F)F)c1` (stereo not drawn) was tested, and the XC50 was 865 nM.
In the case of `CCOc1cc(C(=O)N[C@@H](Cc2ccccc2)[C@H](O)CNC(C)(C)c2cccc(OC)c2)cc(N2CCCS2(=O)=O)c1`, the XC50 is reported as 224 nM.
Work on `CCc1ccc(NC(=O)c2ccc(CN3CCCN(Cc4cccs4)CC3)cc2)cc1` yielded an XC50 of 827 nM.
Work on `Cc1cc(=NN=CC=Cc2ccccc2)c2ccccc2[nH]1` yielded an XC50 of 757 nM.
`COc1cc2c(cc1OC)CN(CCCCNC(=O)c1ccc(NC(=O)c3cc(Cl)cc(Cl)c3)cc1)CC2` showed an XC50 of 778 nM.
`COc1cc(CN2CCC(C(=O)Nc3ccc(-c4cccc(C)c4)cc3)CC2)ccc1O` showed an XC50 of 1120 nM.
With `COc1ccc(C2SCC(=O)N2CCc2ccc(OC)c(OC)c2)cc1` (stereo not drawn) the XC50 was 306 nM.
Work on `Cc1noc(C)c1-c1ccc2c(Nc3ccccc3C(C)(C)C)c(C(=O)NCc3ccc4c(c3)OCO4)cnc2c1` yielded an XC50 of 912 nM.
Compound `CC[C@H]1CN2CC[C@H]1C[C@H]2[C@H](O)c1cc(-c2cccc(Cl)c2)nc2ccc(OC)cc12` has an XC50 of 168 nM.
`O=C(NC1CCCCC1)N(Cc1ccc(-c2ccc(CNC3CCCC3)cc2)cc1)C1CCN(Cc2ccccc2)CC1` gave an XC50 of 780 nM.
`O=C(/C=C/c1ccc(Cl)c(Cl)c1)NCCCCCN1CCC(CCNC(=O)c2snnc2-c2ccccc2)CC1` gave an XC50 of 822 nM.
In the case of `Cc1ccc(N2C(=O)C3C(C2=O)C2(c4ccccc4)C(=O)C3(c3ccccc3)C(c3ccccc3)=C2c2ccccc2)c(C)c1` (stereo not drawn), the XC50 is reported as 529 nM.
With `Cc1cc(OC(C)C(=O)N2CCc3ccccc32)ccc1Cl` (stereo not drawn) the XC50 was 785 nM.
`COc1c(C2CCN(CCCCNC(=O)c3ccc(-c4ccc(Cl)cc4)cc3)CC2)ccc2c1C(C)(C)CCC2(C)C` was tested, and the XC50 was 777 nM.
`CCOc1cc(C)ccc1N1CCN(CCCCNC(=O)c2ccc(NC(=O)c3ccc(Cl)cc3)cc2)CC1` showed an XC50 of 637 nM.
`CC(=O)Nc1ccc(OCCCN(Cc2ccccc2C(F)(F)F)c2ccc(C(F)(F)F)c(C#N)c2)c(Cl)c1` gave an XC50 of 1450 nM.
`Cc1cc(Cl)c(S(=O)(=O)N(C)c2ccccc2)cc1OCC(=O)NC1CCCCC1` was tested, and the XC50 was 296 nM.
`COc1ccc2[nH]ccc(=NN=Cc3cccc(Cl)c3)c2c1` gave an XC50 of 193 nM.
`Nc1nc(F)nc2nc[nH]c12` showed an XC50 of 432 nM.
`CC1(C)N=C(N)N=C(Nc2ccc(Cl)cc2)N1` gave an XC50 of 336 nM.
Compound `COc1ccc2c(c1)nc(CNC(=N)N)n2Cc1ccc(Cl)cc1` has an XC50 of 359 nM.
In the case of `c1ccc(-c2cc3cccc(-c4nc5cnccc5[nH]4)c3o2)cc1`, the XC50 is reported as 115 nM.
`Fc1ccc2[nH]c(-c3cccc(-c4cccc(CNCc5cnn(-c6ccccc6)n5)c4)c3)nc2c1` showed an XC50 of 971 nM.
`Cc1cc(C)c(CC(C)NCC(O)c2cccc(C(F)(F)F)c2)c(C)c1` (stereo not drawn) gave an XC50 of 568 nM.
Work on `Cc1cc2c(/C=C/C(=O)NC3CCC(CCN4CCc5ccc(C#N)cc5CC4)CC3)cccc2[nH]1` (stereo not drawn) yielded an XC50 of 840 nM.
`c1ccc2cc3c(NCCN4CCOCC4)ccnc3cc2c1` showed an XC50 of 168 nM.
Compound `COc1cc(C(=O)NC2CCN(Cc3ccccc3)CC2)ccc1-c1cc2cc(Cl)c(Cl)cc2[nH]1` has an XC50 of 227 nM.
Work on `CCCN1CCN(CCCCNc2c3ccccc3nc3ccccc23)CC1` yielded an XC50 of 409 nM.
For `O=C(Nc1ccc2c(c1)CCNCC2)Nc1ccc2ccccc2c1`, the XC50 was 622 nM.
In the case of `Cc1cc(=NN=Cc2ccc(Cl)cc2)c2ccccc2[nH]1`, the XC50 is reported as 787 nM.
`COc1ccc(NC(=O)Nc2cccc(-c3cccc(-c4nc5cccc(C)c5[nH]4)c3)c2)cc1` was tested, and the XC50 was 400 nM.
`O=C(Nc1ccc(N2CCN(Cc3ccccc3)CC2)cc1)c1cccs1` gave an XC50 of 769 nM.
Work on `COc1cc(Cc2cnc(N)nc2N)cc(OCCCS(=O)(=O)O)c1OC` yielded an XC50 of 1170 nM.
For `CC1(C)NC(N)=NC(=N)N1OCOc1ccc(Cl)cc1`, the XC50 was 4.6 nM.
Work on `CN1CCN(Cc2ccc(-c3cc4c(Nc5ccc(OCc6cccc(F)c6)c(Cl)c5)ncnc4s3)[nH]2)CC1` yielded an XC50 of 766 nM.
Work on `O=C(/C=C/c1ccc(Cl)c(Cl)c1)NCCCCCN1CC[C@H](NC(=O)/C=C/c2ccccc2)C1` yielded an XC50 of 1000 nM.
In the case of `Cc1c(C)c2c(c(C)c1O)CC[C@](C)(C(=O)N1CCC(CCN3CCC(c4c[nH]c5ccccc45)CC3)CC1)O2`, the XC50 is reported as 834 nM.
`Cc1ccc(NC(=O)c2ccc(CN3CCCN(Cc4cccc(Cl)c4)CC3)cc2)cc1C` gave an XC50 of 1210 nM.
`COc1ccc2nccc([C@@H](O)CN3CCC(NCc4ccc5cccc(O)c5n4)CC3)c2n1` gave an XC50 of 912 nM.
Compound `CN(CCc1ccccn1)Cc1ccc(-c2ccc(-c3nc4ccccc4[nH]3)s2)cc1` has an XC50 of 588 nM.
Compound `Cc1cccc2nc(-c3ccc(-c4ccc(CNCCc5ccncc5)cc4)cc3)[nH]c12` has an XC50 of 208 nM.
In the case of `COc1cc2ncnc(Nc3ccc4nc(-c5ccccc5)[nH]c4c3)c2cc1OC`, the XC50 is reported as 443 nM.
`CCCOc1c(CCNCCCCNCCc2ccc3ccccc3c2OCCC)ccc2ccccc12` gave an XC50 of 482 nM.
Work on `CC(C)N1CCN(CCCNc2c3ccccc3nc3ccccc23)CC1` yielded an XC50 of 233 nM.
For `O=C(/C=C/c1ccc(Cl)c(Cl)c1)N1CCC(CN2CCC(c3c(-c4ccccc4)[nH]c4ccccc34)CC2)CC1`, the XC50 was 335 nM.
`O=C(NCC(CCCN1CCC(c2c[nH]c3ccccc23)CC1)c1ccccc1)Nc1ccc(Cl)c(Cl)c1` (stereo not drawn) was tested, and the XC50 was 787 nM.
With `Cc1nc2nc(N)nc(N)c2c(C)c1Cc1ccc(Cl)cc1` the XC50 was 216 nM.
For `CCCN(CCC)CCCNc1ccc(C(=O)Nc2ccc(C)c(F)c2)cc1[N+](=O)[O-]`, the XC50 was 539 nM.
Compound `CN1CCCC(CN2CCN(Cc3cccc(-c4csc(-c5nc6ccccc6[nH]5)c4)c3)CC2)C1` (stereo not drawn) has an XC50 of 414 nM.
Work on `Cc1cc(NC(=O)NC(=N)N)ccc1Cl` yielded an XC50 of 698 nM.
`O=C(Nc1ccccc1F)N(CCCn1ccnc1)Cc1csc(-c2ccc(CNCc3ccccc3)cc2)n1` was tested, and the XC50 was 841 nM.
`COc1ccc(Nc2ccnc3cc4ccccc4cc23)cc1` gave an XC50 of 683 nM.
`COc1cccc2c(O)c(CNC3CCCCC3)ccc12` gave an XC50 of 630 nM.
`CCOC(=O)c1cnc2c(OC)cc(OC)c(Cl)c2c1Nc1cccc(C)c1C` gave an XC50 of 310 nM.
With `O=C(/C=C/c1ccc(Cl)c(Cl)c1)NCC(CCCN1CCC(c2c[nH]c3ccccc23)CC1)c1ccccc1` (stereo not drawn) the XC50 was 813 nM.
`COc1ccc2cc(C(c3nnnn3CC3CCCO3)N3CCc4ccccc43)c(=O)[nH]c2c1` (stereo not drawn) gave an XC50 of 795 nM.
Compound `O=C(Nc1cccc(CN2CCN(Cc3cccc(O)c3)CC2)c1)c1ccc(Cl)c(Cl)c1` has an XC50 of 411 nM.
